By IC50 is commonly meant the concentration needed to halve the response being measured. Low readings indicate greater potency in that assay, high ones weaker potency in that assay.

The target of this assay is CYP3A4 (Homo sapiens, UniProt P08684). Kind of assay: Determination of CYP3A4 inhibitory activity (human liver microsome, Luciferin-IPA). Conditions: CYP3A4 IC50 (nM), 37° C. 11 minutes. How it is done: The standard final Compound concentrations were 37, 111, 333, 1000, and 3000 nM. 12.5 μL of the Compound dilutions were transferred to a white 96-well plate. […] 25 μL of the buffer was added to each well. The plates were incubated at 37° C. for 11 minutes. 50 μL of luciferin detection reagent (Promega V9002) was added and the plates were incubated at room temperature for 5 minutes. The plate was read with a luminometer.
Chain of CYP3A4 (P08684 whole entry): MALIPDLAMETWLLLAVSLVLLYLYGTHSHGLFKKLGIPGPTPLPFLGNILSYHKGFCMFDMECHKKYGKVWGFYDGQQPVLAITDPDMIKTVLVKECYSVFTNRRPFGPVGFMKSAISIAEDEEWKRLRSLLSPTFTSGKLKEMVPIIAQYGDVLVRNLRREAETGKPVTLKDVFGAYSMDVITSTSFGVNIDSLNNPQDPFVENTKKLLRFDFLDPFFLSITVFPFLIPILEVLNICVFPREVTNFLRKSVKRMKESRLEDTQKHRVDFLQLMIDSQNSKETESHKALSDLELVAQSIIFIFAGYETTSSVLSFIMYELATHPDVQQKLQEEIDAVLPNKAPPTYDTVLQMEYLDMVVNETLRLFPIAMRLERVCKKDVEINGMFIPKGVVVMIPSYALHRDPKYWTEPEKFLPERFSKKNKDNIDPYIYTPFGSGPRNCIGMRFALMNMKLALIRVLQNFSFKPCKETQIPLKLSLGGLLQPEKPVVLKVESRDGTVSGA
The dose-response curve and IC50 were obtained by fitting data to nonlinear regression model using GraphPad Prism software (v6.0).
(Microsomes from liver hold many membrane-bound enzymes, among them those of drug oxidation.)
As to `C#Cc1ccc(CN(C)CCc2ccc(NC(=O)c3cc(OC)c(OC)cc3NC(=O)c3cc(=O)c4ccccc4o3)cc2)cc1` [Compound 115], the concentration for half-maximal inhibition (IC50) was > 1000 nM. Take `C#Cc1cccc(CN(C)CCc2ccc(NC(=O)c3cc(OC)c(OC)cc3NC(=O)c3cc(=O)c4ccccc4o3)cc2)c1` [Compound 116]: the IC50 is > 1000 nM. `COc1cc(NC(=O)c2cc(=O)c3ccccc3o2)c(C(=O)Nc2ccc(CCN(C)Cc3cc(-n4cnc(C)c4)ccc3C)cc2)cc1OC` [Compound 117] came in with an IC50 of 250 to 500 nM.

In turn, `COc1cc(NC(=O)c2cc(=O)c3ccccc3o2)c(C(=O)Nc2ccc(CCN(C)Cc3ccc(-c4cncs4)cc3)cc2)cc1OC` [Compound 118] came in with an IC50 of 250 to 500 nM. The figure for `COc1cc(NC(=O)c2cc(=O)c3ccccc3o2)c(C(=O)Nc2ccc(CCN(C)C(=O)CCc3cccnc3)cc2)cc1OC` [Compound 119] is 100 to 250 nM.

`COc1cc(NC(=O)c2cc(=O)c3ccccc3o2)c(C(=O)Nc2ccc(CCN(C)C(=O)CCc3ccncc3)cc2)cc1OC` [Compound 120] displayed a 50% inhibitory concentration (IC50) of 100 to 250 nM.

Molecule `COc1cc(NC(=O)c2cc(=O)c3ccccc3o2)c(C(=O)Nc2ccc(CCN(C)C(=O)c3cccc(-n4ccnc4)c3)cc2)cc1OC` [Compound 122] came in with an IC50 of 500 to 1000 nM.

`COc1cc(NC(=O)c2cc(=O)c3ccccc3o2)c(C(=O)Nc2ccc(CCN(C)C(=O)c3ccc(-n4ccnc4)cc3)cc2)cc1OC` [Compound 123]: the IC50 is < 100 nM. For `COc1cc(NC(=O)c2cc(=O)c3ccccc3o2)c(C(=O)Nc2ccc(CCN(C)C(=O)c3cccc(-c4cccnc4)c3)cc2)cc1OC` [Compound 124] the value was 250 to 500 nM; for `COc1cc(NC(=O)c2cc(=O)c3ccccc3o2)c(C(=O)Nc2ccc(CCNCc3cccc(-n4ccnc4)c3)cc2)cc1OC` [Compound 125], 100 to 250 nM.

On to `COc1cc(NC(=O)c2cc(=O)c3ccccc3o2)c(C(=O)Nc2ccc(CCN(C)Cc3cnc(-n4ccnc4)nc3)cc2)cc1OC` [Compound 126], for which the IC50 fell in the range of 500 to 1000 nM. For `CCN(CCc1ccc(NC(=O)c2cc(OC)c(OC)cc2NC(=O)c2cc(=O)c3ccccc3o2)cc1)Cc1cccc(OC[C@@H]2CO[C@@](Cn3ccnc3)(c3ccc(Cl)cc3Cl)O2)c1` [Compound 127] the value was < 100 nM; for `COc1cc(NC(=O)c2cc(=O)c(O)co2)c(C(=O)Nc2ccc(CCN(C)Cc3ccc(-n4ccnc4)cc3)cc2)cc1OC` [Compound 128], 500 to 1000 nM; for `COc1cc(NC(=O)c2cc(=O)c(O)co2)c(C(=O)Nc2ccc(CCN(C)Cc3cccc(-n4ccnc4)c3)cc2)cc1OC` [Compound 129], > 1000 nM. Turning to `CCN(CCc1ccc(NC(=O)c2cc(OC)c(OC)cc2NC(=O)c2cc(=O)c3ccccc3o2)cc1)Cc1cccc(OCCn2ccnc2)c1` [Compound 130], the IC50 is < 100 nM. In turn, `CCN(CCc1ccc(NC(=O)c2cc(OC)c(OC)cc2NC(=O)c2cc(=O)c3ccccc3o2)cc1)Cc1ccc(OCCn2ccnc2)cc1` [Compound 131] registered a concentration for half-maximal inhibition (IC50) of 250 to 500 nM. The figure for `CCN(CCc1ccc(NC(=O)c2cc(OC)c(OC)cc2NC(=O)c2cc(=O)c3ccccc3o2)cc1)Cc1ccc(OC)c(OCCn2ccnc2)c1` [Compound 132] is 100 to 250 nM; for `CCN(CCc1ccc(NC(=O)c2cc(OC)c(OC)cc2NC(=O)c2cc(=O)c3ccccc3o2)cc1)Cc1ccc(OC)c(O)c1` [Compound 133] it is > 1000 nM. Molecule `CCN(CCc1ccc(NC(=O)c2cc(OC)c(OC)cc2NC(=O)c2cc(=O)c3ccccc3o2)cc1)Cc1ccc(OCCn2ccnc2)c(OC)c1` [Compound 134] yielded an IC50 of 100 to 250 nM. Turning to `CCN(CCc1ccc(NC(=O)c2cc(OC)c(OC)cc2NC(=O)c2cc(=O)c3ccccc3o2)cc1)Cc1ccc(O)c(OC)c1` [Compound 135], the 50% inhibitory concentration (IC50) is 500 to 1000 nM. The figure for `COc1cc(NC(=O)c2cnc3c(O)cccc3c2)c(C(=O)Nc2ccc(CCN(C)Cc3ccc4c(cnn4C)c3)cc2)cc1OC` [Compound 136] is > 1000 nM.

For the molecule `COc1cc(NC(=O)c2cc(=O)c3ccccc3o2)c(C(=O)Nc2ccc(CCN(Cc3ccc4c(cnn4C)c3)Cc3ccc4c(cnn4C)c3)cc2)cc1OC` [Compound 137], the IC50 is > 1000 nM. The figure for `COc1cc(NC(=O)c2cc(=O)c3ccccc3o2)c(C(=O)Nc2ccc(CCN(C)Cc3ccc4c(c3)OCO4)cc2)cc1OC` [Compound 138] is > 1000 nM; for `COc1cc(NC(=O)c2cc(=O)c3ccccc3o2)c(C(=O)Nc2ccc(CCNCc3ccc4c(cnn4C)c3)cc2)cc1OC` [Compound 139] it is > 1000 nM; for `COc1cc(NC(=O)c2cc(=O)c3ccccc3o2)c(C(=O)Nc2ccc(CCN(Cc3ccc4c(cnn4C)c3)Cc3cncs3)cc2)cc1OC` [Compound 140] it is > 1000 nM. The figure for `CCN(CCc1ccc(NC(=O)c2cc(OC)c(OC)cc2NC(=O)c2cc(=O)c3ccccc3o2)cc1)Cc1cccc(-c2ccco2)c1` [Compound 141] is > 1000 nM; for `COc1cc(NC(=O)c2cc(=O)c3ccccc3o2)c(C(=O)Nc2ccc(CCN(Cc3ccc(-n4cncn4)cc3)Cc3ccc4c(cnn4C)c3)cc2)cc1OC` [Compound 142] it is > 1000 nM; for `CCN(CCc1ccc(NC(=O)c2cc(OC)c(OC)cc2NC(=O)c2cc(=O)c3ccccc3o2)cc1)Cc1ccc(-c2ccco2)cc1` [Compound 143] it is > 1000 nM. For `CCN(CCc1ccc(NC(=O)c2cc(OC)c(OC)cc2NC(=O)c2cc(=O)c3ccccc3o2)cc1)Cc1ccc(C)c2ncccc12` [Compound 144] the value was > 1000 nM. As to `COc1cc(NC(=O)c2cnc3ccccc3c2)c(C(=O)Nc2ccc(CCN(Cc3ccc(-n4ccnc4)cc3)Cc3ccc4c(cnn4C)c3)cc2)cc1OC` [Compound 145], the 50% inhibitory concentration (IC50) was in the range of 500 to 1000 nM.

As for `COc1cc(NC(=O)c2cnc3ccccc3c2)c(C(=O)Nc2ccc(CCN(Cc3cccc(-n4ccnc4)c3)Cc3ccc4c(cnn4C)c3)cc2)cc1OC` [Compound 146], the IC50 was in the range of 500 to 1000 nM. The figure for `COc1ccc(CN(CCc2ccc(NC(=O)c3cc(OC)c(OC)cc3NC(=O)c3cc(=O)c4ccccc4o3)cc2)Cc2cncn2C)cc1OC` [Compound 147] is < 100 nM. For the molecule `COc1cc(NC(=O)c2cc(=O)c3ccccc3o2)c(C(=O)Nc2ccc(CCN(C)Cc3ccc(-c4nn[nH]n4)cc3)cc2)cc1OC` [Compound 148], the concentration for half-maximal inhibition (IC50) was > 1000 nM.

`COc1cc(NC(=O)c2cc(=O)c3ccccc3o2)c(C(=O)Nc2ccc(CCN(CCN3CCOCC3)Cc3ccc4c(cnn4C)c3)cc2)cc1OC` [Compound 149]: the IC50 is > 1000 nM. For `COc1cc(NC(=O)c2cc(=O)c3ccccc3o2)c(C(=O)Nc2ccc(CCN(C)Cc3ccc4c(c3)CCO4)cc2)cc1OC` [Compound 155] the value was > 1000 nM. The figure for `COc1cc(NC(=O)c2cc(=O)c3ccccc3o2)c(C(=O)Nc2ccc(CCN(C)Cc3cccc(-c4nc(C)no4)c3)cc2)cc1OC` [Compound 157] is > 1000 nM.

In the case of `CCN(CCc1ccc(NC(=O)c2cc(OC)c(OC)cc2NC(=O)c2cc(=O)c3ccccc3o2)cc1)Cc1ccc2c(c1)n(C)c(=O)n2C` [Compound 161], the IC50 is > 1000 nM. Regarding `CCN(CCc1ccc(NC(=O)c2cc(OC)c(OC)cc2NC(=O)c2cc(=O)c3ccccc3o2)cc1)Cc1ccc2c(c1)CCO2` [Compound 162], the concentration for half-maximal inhibition (IC50) was > 1000 nM. On to `COc1cc(NC(=O)c2cc(=O)c3ccccc3o2)c(C(=O)Nc2ccc(CCN(Cc3ccc4c(c3)CCO4)Cc3ccc4c(cnn4C)c3)cc2)cc1OC` [Compound 163], for which the IC50 is > 1000 nM. In the case of `CCN(CCc1ccc(NC(=O)c2cc(OC)c(OC)cc2NC(=O)c2cc(=O)c3ccccc3o2)cc1)Cc1ccc2cnn(C)c2c1` [Compound 164], the IC50 was > 1000 nM.

Take `CCN(CCc1ccc(NC(=O)c2cc(OC)c(OC)cc2NC(=O)c2cc(=O)c3ccccc3o2)cc1)Cc1ccc2oncc2c1` [Compound 165]: the half-inhibitory concentration (IC50) was > 1000 nM. The figure for `COc1cc(NC(=O)c2cnc3ccccc3n2)c(C(=O)Nc2ccc(CCN(Cc3ccc4c(cnn4C)c3)Cc3ccc4c(cnn4C)c3)cc2)cc1OC` [Compound 167] is > 1000 nM; for `COc1cc(NC(=O)c2cnc3ccccc3n2)c(C(=O)Nc2ccc(CCN(Cc3ccc4cnn(C)c4c3)Cc3ccc4cnn(C)c4c3)cc2)cc1OC` [Compound 168] it is > 1000 nM. For `COc1cc(NC(=O)c2cnc3ccccc3n2)c(C(=O)Nc2ccc(CCN(Cc3ccc4c(c3)n(C)c(=O)n4C)Cc3ccc4c(c3)n(C)c(=O)n4C)cc2)cc1OC` [Compound 169] the value was > 1000 nM. For `COc1cc(NC(=O)c2cc(=O)c3ccccc3o2)c(C(=O)Nc2ccc(CCN(Cc3ccc4cnn(C)c4c3)Cc3ccc4cnn(C)c4c3)cc2)cc1OC` [Compound 170] the value was > 1000 nM. Regarding `COc1cc(NC(=O)c2cnc3ccccc3n2)c(C(=O)Nc2ccc(CCN(Cc3ccc4c(cnn4C)c3)Cc3ccc4cnn(C)c4c3)cc2)cc1OC` [Compound 172], the IC50 was > 1000 nM. The figure for `COc1cc(NC(=O)c2cnc3ccccc3n2)c(C(=O)Nc2ccc(CCN(Cc3ccc4c(cnn4C)c3)Cc3ccc(C)c4ncccc34)cc2)cc1OC` [Compound 173] is > 1000 nM; for `COc1cc(NC(=O)c2cc(=O)c3ccccc3o2)c(C(=O)Nc2ccc(CCN(Cc3cccc(-n4ccnc4)c3)Cc3ccc4cnn(C)c4c3)cc2)cc1OC` [Compound 177] it is < 100 nM; for `COc1cc(NC(=O)c2cnc3ccccc3c2)c(C(=O)Nc2ccc(CCN(Cc3cccc(-n4ccnc4)c3)Cc3ccc4c(c3)c(C)nn4C)cc2)cc1OC` [Compound 179] it is 250 to 500 nM.

As for `COc1cc(NC(=O)c2cc(=O)c3ccccc3o2)c(C(=O)Nc2ccc(CCN(Cc3ccc4c(c3)c(C)nn4C)Cc3ccc4c(c3)c(C)nn4C)cc2)cc1OC` [Compound 180], the IC50 is > 1000 nM. The figure for `COc1cc(NC(=O)c2cc(=O)c3ccccc3o2)c(C(=O)Nc2ccc(CCN(Cc3ccc4c(cnn4C)c3)Cc3ccc4c(c3)c(C)nn4C)cc2)cc1OC` [Compound 181] is > 1000 nM; for `COc1cc(NC(=O)c2cc(=O)c3ccccc3o2)c(C(=O)Nc2ccc(CCN(Cc3ccncc3)Cc3ccc4cnn(C)c4c3)cc2)cc1OC` [Compound 182] it is < 100 nM.

These data come from patent publication US20220106301A1, “ACETAMIDO-PHENYLBENZAMIDE DERIVATIVES AND METHODS OF USING THE SAME” (Athenex, Inc., priority 2020, published 2022).
